Assay results taken from US12285437B2 (The Research Foundation for The State University of new York, priority 2019, dated 2025).
Where two headings read alike, the source gives them in different places.

How the values were obtained:
[1] = HPLC assay of Dox release from DMA prodrugs 2/4/6 at different pH values; type: physicochemical; conditions: 37° C., pH 7.4, 10 h
Description: The pH-dependence of drug release from Dox-DMA prodrugs as followed in HPLC assays. To test the pH-sensitivity of drug release, solutions of a DMA prodrug were adjusted to have pH values between 6.0 and 7.4. […] The HPLC rans were carried out with pH 8 solvents so that the DMA prodrug would not decompose during the HPLC analysis. Areas under the peaks were integrated to give the percentages.
The pH of the DMA prodrug solution was adjusted to different pH values in the range of pH 7.4-6.0. […] Representative HPLC traces are shown in ESI FIGS. S24-S29 (see these figures and their captions for more detailed information).

[2] = system: ES2 cells; assay: Imaging studies (confocal microscopy); type: cell-based, human
Description: Afterwards, the treatment solution was removed; the nuclei of the cells were labeled with staining dye Hoechst 33342; and then images were taken on a scanning confocal microscope.
Imaging studies (confocal microscopy). Approximately 8,000 ES2 cells were seeded on a colIagen-coated glass dish (MatTek Corporation, part No. P35GCOL-0-10-C) and cultured in McCoy's 5A medium with 10% fetal bovine serum and 1% penicillin-streptomycin at 37° C. in the incubator (5% CO2) overnight. […] After treatment solution was removed, the cells were washed 1× with 100 μL of DMEM/F12 pH-specific media. Prior to fluorescence imaging, the nuclei of cells were stained with 1 μg/mL Hoechst 33342 in PBS for 20 min at 37° C. in the incubator. Afterwards, cells stayed in pH-specific DMEM/F12 media during imaging. […] The images in FIGS. 33-36 were processed using LAS X and ImageJ.

[3] = system: SKOV3 human ovarian cancer cells; conditions: FIG. 9A, 10 μM
Description: (§1) pH-dependent anti-proliferation assays with cells. In 96-well plates, ˜3,000 cells were seeded per well then grown for 24-48 hr until 30-40% confluency. […] For serum effect cell plate data shown in FIG. 5I, cell viability was measured using alamar Blue assay (i.e., growth media was replaced with 45 μL of pH 7.4 DMEM/F-12 media without phenol red, 5 μL of alamar Blue reagent (10×) was added; fluorescence at 590 nm was recorded after excitation at 560 nm at 1 hr afterwards).
(§2) The reaction solution was allowed to stand at rt for 1 hr in the dark, during which the pH decreased to ˜9.6. After 1 hr, the reaction solution was split into two 50-μL portions (for pH 7.4 vs. pH 6.2-6.8 cell experiments). The pH of one portion was adjusted to pH 8 (for pH 7.4 cell experiments) or pH 7 (for pH 6.2-6.8 cell experiments). Subsequently, the solution was diluted 30-fold (to 10 μM) with pH 7.4 or pH 6.2-6.8 cell media (final volume 1.5 mL) and then filtered (0.2 micron) before used in cell experiments.

[4] = system: ES-2 human ovarian cancer cells; assay: pH-dependent anti-proliferation assay (MTS; alamar Blue for FIG. 7I); conditions: for Cell Viability Average (Avg): FIG. 7A, ES-2, 6 hr
Source text: pH-dependent anti-proliferation assays with cells.
NaOH to adjust the pH to 9.9.

[5] = system: PC-3 human prostate cancer cells; conditions: FIG. 9B, PC3, […], 10 μM
Description: as §1, §2

[6] = system: ES2 ovarian cancer cells; assay: Antiproliferation assays against ES2 cancer cells at different pH values; type: cell-based, human
Description: For cell experiments, a pH 8 or pH 10 (directly from DMI to DMA conversion) solution of DMA 2/4/6 was sterilized by filtering through a 0.2-micron membrane. […] At this point, small amounts of 10 (or 25) mM of sterile aq.
Antiproliferation assays against ES2 cancer cells at different pH values. […] Treatment solution volume was 50-100 μL per well, with a set volume per well for all wells in a plate.

[7] = system: NIH:OVCAR3 human ovarian cancer cells
Description: as §1, §2

[8] = system: MDA-MB-231 human breast cancer cells
Description: as §1, §2

COc1cccc2c1C(=O)c1c(O)c3c(c(O)c1C2=O)C[C@@](O)(C(=O)CO)C[C@@H]3O[C@H]1C[C@H](N2C(=O)C(C)=C(CCC(=O)O)C2=O)[C@H](O)[C@H](C)O1 [Dox-DMI 1]
DMI formed [1]: about 13%
Dox channel signal among the DMI byproducts ([2]; ES2, 8 μM, 1 h): more signals
Dox fluorescence signals in cells, pH 6.7 vs. 7.7 ([2]; ES2, 1 h, 4 μM Dox or 8 μM prodrug/DMI): higher at pH 6.7 than 7.7

COc1cccc2c1C(=O)c1c(O)c3c(c(O)c1C2=O)C[C@@](O)(C(=O)CO)C[C@@H]3O[C@H]1C[C@H](N2C(=O)C(C)=C(CCC(=O)NCCSSC[C@H](N)C(=O)O)C2=O)[C@H](O)[C@H](C)O1 [Dox-DMI-Cys 5]
DMI formed [1]: 26%

COc1cccc2c1C(=O)c1c(O)c3c(c(O)c1C2=O)C[C@@](O)(C(=O)CO)C[C@@H]3O[C@H]1C[C@H](N2C(=O)C(C)=C(CCC(=O)NCCSSC[C@H](NC(=O)CC[C@H](N)C(=O)O)C(=O)NCC(=O)O)C2=O)[C@H](O)[C@H](C)O1 [Dox-DMI-GSH 7, Doxorubicin Disubstituted Maleimide Glutathione Conjugate]
Cell Viability Avg ([3]; pH 6.3-6.5): 75%
Cell Viability Avg ([3]; pH 7.5-7.6): 63%
toxicity compared to DMA 8 ([4]; ES-2, 6 h (FIG. 7A)): much less toxicity
Cell Viability Average (Avg) ([4]; 0.5 μM, pH 6.6-6.8): 90%
Cell Viability Average (Avg) ([4]; 0.5 μM, pH 7.2-7.5): 97%
Cell Viability Average (Avg) ([4]; 1 μM, pH 6.6-6.8): 79%
Cell Viability Average (Avg) ([4]; 1 μM, pH 7.2-7.5): 80%
Cell Viability Avg ([5]; pH 6.3-6.4): 90%
Cell Viability Avg ([5]; pH 7.5-7.6): 84%

COc1cccc2c1C(=O)c1c(O)c3c(c(O)c1C2=O)C[C@@](O)(C(=O)CO)C[C@@H]3O[C@H]1C[C@H](N2C(=O)C(C)=C(CCC(=O)N[C@@H](CCC(=O)O)C(=O)O)C2=O)[C@H](O)[C@H](C)O1 [Dox-DMI-Glu 3]
DMI formed [1]: 26%

CC1=C(CCC(=O)O)C(=O)OC1=O [anhydride 7, 2-propionic-3-methylmaleic anhydride]
cytotoxicity of anhydride byproduct of drug release ([6]; FIG. 29D, ES2, 2, 20 or 200 μM, pH 6.7-6.8 or 7.5-7.6, 2 h): harmless to cells
cytotoxicity of anhydride byproduct of drug release ([6]; FIG. 29D, ES2, 2, 20 or 200 μM, pH 6.7-6.8 or 7.5-7.6, 2 h, listed as anhydride byproduct 7): not cytotoxic

CC1=C(CCC(=O)N[C@@H](CCC(=O)O)C(=O)O)C(=O)OC1=O [byproduct 10, (3-(4-methyl-2,5-dioxo-2,5-dihydrofuran-3-yl)propanoyl)glutamic acid]
cytotoxicity of anhydride byproduct of drug release ([6]; FIG. 30D, ES2, 3, 30 or 300 μM, pH 6.5-6.6 or 7.4-7.5, 3 h): not cytotoxic

CC1=C(CCC(=O)NCCSSC[C@H](N)C(=O)O)C(=O)OC1=O [byproduct 12]
cytotoxicity of anhydride byproduct of drug release ([6]; FIG. 31D, ES2, 2, 20 or 200 μM, pH 6.7 or 7.4-7.5, 2 h): did not show any cytotoxicity
cytotoxicity of anhydride byproduct of drug release ([6]; FIG. 31D, ES2, 2, 20 or 200 μM, pH 6.7 or 7.4-7.5, 2 h, listed as anhydride 12): no cytotoxic effect
cytotoxicity of anhydride byproduct of drug release ([6]; FIG. 31D, ES2, 2, 20 or 200 μM, pH 6.7 or 7.4-7.5, 2 h, listed as anhydride byproduct 12): not cytotoxic

Doxorubicin Disubstituted Maleamic Acid Glutathione Conjugate [Dox-DMA-GSH 8]
fold more potent at pHe 6.7 (than at pHe 7.4) ([4]; ES-2, 6 h): ~2 fold
potency of 1 mM of prodrug compared to 0.5 mM of free Dox ([4]; ES-2, 6 h, pHe 6.7): more potent
pHe at which the maximum effect was reached ([4]; ES-2, pHe titration (FIG. 7E)): 6.8
higher potency than the free drug (3 μM) ([7]; OVCAR3, 2-3 h, 6-8 μM prodrug, pHe 6.3-6.4): 2-3 ×
pHe at which maximum effects were seen ([7]; OVCAR3, pHe titration (FIG. 7G)): 6.5
higher potency than the free drug (3 μM) ([8]; MDA-MB231, 2-3 h, 6-8 μM prodrug, pHe 6.3-6.4): 2-3 ×
pHe at which maximum effects were seen ([8]; MDA-MB231, pHe titration (FIG. 7F)): 6.5
